The text below walks through data of patent US10639300B2, “Compositions and methods for treating nasal and paranasal mucosa diseases with nicotinic acetylcholine receptor agonists” (priority 2016, dated 2020).

Assay [1] concerns patient with nose bleeding and atrophy of the nasal cavity mucous membranes. To be noted: person, aqueous solution 2.0 mg/ml with salicylic acid 0.5 mg/ml, one to two drops, three to four times a day. Here is the method:
The patient was a person with a history of nose bleeding in small quantities and sensation of dryness in the nose and eyes. The patient also reported a long history of joint pain, but no other remarkable antecedents.
The treatment for patient two began with an aqueous solution of (S)-(1-methyl-2-pyrrolidinyl)-pyridine at a concentration of 2.0 mg/ml and salicylic acid at a concentration of 0.5 mg/ml at a dose of one to two drops (about 50 μL per drop) followed by forced inhalation. The dose was repeated three to four times a day.

In assay [2] the test system is patient with chronic nasal congestion. The note with it: aqueous solution 1.00 mg/ml with salicylic acid 0.5 mg/ml, two drops in each nostril, three or four times a day, follow-up one month later.
Description: The patient also complained of frequent headaches in the forehead region.
The dose was repeated three or four times a day. […] It was felt by the clinician that the possible causative agent/s for the chronic nasal congestion may have been external environment factors such as cold, dust, air pollution, second-hand cigarette smoke and/or seasonal allergens such as pollens.
For another assay, the system named is human cancer cells. The note with it: experimental cultures of human cancer cells; concentration 5 mg/ml.

`CN1CCC[C@H]1c1cccnc1` [(S)-(1-methyl-2-pyrrolidinyl)-pyridine]: in assay [1] (follow-up one month later), the “nasal bleeding (patient report)” value is given as “ceased”. Besides, the “sensation of dryness in the nose and eyes (patient report)” value in assay [1] (since the first week of treatment) is “diminished markedly”. The “patient-reported improvement of symptoms (100% being what the patient considered normal)” value in assay [2] was 90%. The compound also had an inhibition of proliferation with human cancer cells of 95%.
